Experimental data: publication PMC6027464, “Separation, Identification, and Antidiabetic Activity of Catechin Isolated from Arbutus unedo L. Plant Roots” (Plants, 2018)

Target: α-glucosidase
Test: p-NPG hydrolysis assay with commercial enzyme (Sigma-Aldrich), absorbance at […] nm
Type: biochemical

With `Oc1cc(O)c2c(c1)O[C@H](c1ccc(O)c(O)c1)[C@@H](O)C2` [Catechin] the “α-Glucosidase Inhibitory Activity IC50 (μg/mL), ±SD” value was 87.55 ± 2.23 µg/mL.
